{"source": "a melting point compilation (Tetko et al.; mined from patent text by program, amines drawn as free bases though some values may be those of a salt)"}
{"units": {"melting point": "°C"}}
{"molecule": "COc1ccc(C)cc1NC(=O)Nc1ccc(N2CCN(C(=O)C3CC4CCC3C4)CC2)cc1", "note": "(stereo not drawn)", "melting point": "126 to 128"}
{"molecule": "O=C1OC(CI)CN1c1cc(F)c(-c2cccnc2)c(F)c1", "note": "(stereo not drawn)", "melting point": "133 to 134"}
{"molecule": "CC(Cc1c[nH]c2ccccc12)(NC(=O)OCC1c2ccccc2-c2ccccc21)C(=O)NCCc1ccccc1", "note": "(stereo not drawn)", "melting point": "179 to 181"}
{"molecule": "Cc1ccc(S(=O)(=O)NC(COS(=O)(=O)c2ccc(C)cc2)Cc2ccccc2)cc1", "note": "(stereo not drawn)", "melting point": "95 to 96"}
{"molecule": "CN1CCN(Cc2cc(N)cc(C(F)(F)F)c2)CC1", "melting point": "98 to 99"}
{"molecule": "Oc1cc2c(cc1O)OCC(c1ccc(F)cc1)C2", "note": "(stereo not drawn)", "melting point": "135 to 137"}
{"molecule": "O=C(O)c1cc(C(c2ccccc2)(c2ccccc2)c2ccccc2)ccc1O", "melting point": "234 to 237"}
{"molecule": "CCOc1ccn2nc(S(=O)(=O)Cl)nc2n1", "melting point": "91 to 96"}
{"molecule": "CC(C)(CCCCOCCCc1ccccc1)NCc1c(CO)ccc(O)c1CO", "melting point": "67 to 69"}
{"molecule": "CCCCCCCCCCCCCCCCCC1OCC(COC(O)CCC)O1", "note": "(stereo not drawn)", "melting point": "34 to 44"}
{"molecule": "COc1ccc(S(=O)(=O)N2C(=O)C(OC(=O)Oc3ccccc3)(c3ccccc3C(F)(F)F)c3cc(Cl)ccc32)c(OC)c1", "note": "(stereo not drawn)", "melting point": 191}
{"molecule": "O=c1[nH]c2c3ccccc3ccc2n(C2CCCCC2)c1=O", "melting point": 288}
{"molecule": "ClCC(CCl)(CCl)c1cc(Cl)nnc1Cl", "melting point": "111 to 112"}
{"molecule": "CC(Sc1ccc(Cl)cc1Cl)C(=O)O", "note": "(racemic)", "melting point": "95 to 98"}
{"molecule": "CN(Cc1ccccc1)c1ccc(C(=O)c2ccccc2)cc1[N+](=O)[O-]", "melting point": 99.5}
{"molecule": "CC(C)(C)OC(=O)NCC(=O)OCCCNc1ccc(O)c2c1C(=O)c1c(O)cccc1C2=O", "melting point": 152}
{"molecule": "CC1(C)CC(c2ccccn2)c2cc(C#N)ccc2O1", "note": "(stereo not drawn)", "melting point": "114 to 115"}
{"molecule": "Nc1ccc(Cl)cc1C(=O)c1ccccc1OCc1ccccc1", "melting point": "110 to 111"}
{"molecule": "CC(C)n1nc(-c2cnc(N)nc2-c2ccccc2C(F)(F)F)ccc1=O", "melting point": "160 to 161"}
{"molecule": "Cc1cc(COC2CCCO2)nc(N)n1", "note": "(stereo not drawn)", "melting point": "109 to 110"}
{"molecule": "O=C(O)CCC(CCCCNS(=O)(=O)c1ccc(Cl)cc1)CCCn1ccnc1", "note": "(stereo not drawn)", "melting point": "136 to 138"}
{"molecule": "CCOC(=O)C1CCCCN1C(=O)Cl", "note": "(stereo not drawn)", "melting point": "121 to 123"}
{"molecule": "O=C(O)Cc1ccc2c(c1)C(=O)Cc1ccccc1S2", "melting point": "166 to 167"}
{"molecule": "Nc1nc(N)c2c(Sc3ccccc3)cccc2n1", "melting point": "195 to 197"}
{"molecule": "O=C1CCC(N2C(=O)c3cccc(Nc4ccc5c(c4)OCO5)c3C2=O)C(=O)N1", "note": "(stereo not drawn)", "melting point": "> 260"}
{"molecule": "COc1ccc(C=O)c(O[Si](C)(C)C(C)(C)C)c1O[Si](C)(C)C(C)(C)C", "melting point": "74 to 75"}
{"molecule": "CC(C)(C)OC(=O)N1C(=O)CCC1c1ccc(F)cc1", "note": "(stereo not drawn)", "melting point": 117}
{"molecule": "Cc1ncc2c(n1)-c1ccccc1C2(Cc1ccnc(F)c1)Cc1ccnc(F)c1", "melting point": "114 to 115"}
{"molecule": "CCOC(=O)C1CN(C(C)=O)CCN1CC=CC(=O)Nc1cc2c(Nc3ccc(F)c(Cl)c3)ncnc2cc1OCC1CC1", "note": "(stereo not drawn)", "melting point": "152 to 156"}
{"molecule": "Cc1ccc(C)c2c(=O)n(CCCN3CC=C(c4ccc(Cl)cc4)CC3)c(=O)[nH]c12", "melting point": "212 to 220"}
{"molecule": "O=C(CCc1ccccc1[N+](=O)[O-])c1c(O)c2cccnc2n(-c2ccccc2)c1=O", "melting point": "238 to 240"}
{"molecule": "CC(C)(C)c1cc(O)no1", "melting point": "99 to 101"}
{"molecule": "CC(C)(C)c1cc(OCCCCc2nnn[nH]2)cc(C(C)(C)C)c1", "melting point": "140 to 141"}
{"molecule": "COc1ccc(OC)c(C2(C(C)(C)O)CCN(C)CC2)c1", "melting point": "139 to 140"}
{"molecule": "CS(=O)(=O)OCc1ccc(-c2nnc3n2-c2cccnc2Nc2ccccc2-3)cc1", "melting point": "252 to 253"}
{"molecule": "COC(=O)CCc1cc2cc(Cl)c(Cl)cc2n1S(=O)(=O)c1ccccc1", "melting point": 280}
{"molecule": "Cc1c(-c2ccnc(Nc3ccc(C(=O)N4CCOCC4)cc3)n2)cccc1[N+](=O)[O-]", "melting point": "187 to 188"}
{"molecule": "NC(=O)N1CCNC1=O", "melting point": 200}
{"molecule": "CC(=O)NC[C@H]1CN(c2ccc(-c3nc(Cn4cccn4)cs3)c(F)c2)C(=O)O1", "melting point": "178 to 180"}
{"molecule": "COC(=O)CCc1cc(C(C)(C)C)c(O)c(C(C)(C)C)c1", "melting point": "63 to 64.5"}
{"molecule": "COc1cc(C(=O)N(C(C)C)C2CCCCC2)ccc1Cn1cnc2ncccc21", "melting point": "189 to 191"}
{"molecule": "CCOC(=NS(C)(=O)=O)N1Cc2ccccc2-c2ccccc2C1", "melting point": "136 to 138"}
{"molecule": "O=C(c1ccccc1CN1CC=CCC1)N1CCN2C(=O)OC(c3ccccc3)(c3ccccc3)C2C1", "note": "(stereo not drawn)", "melting point": "155 to 157"}
{"molecule": "CN1CCN(c2ccc(N)cc2F)CC1", "melting point": "89 to 91"}
{"molecule": "CC(C)(C)OC(=O)c1nc(-c2cccc3ccccc23)[nH]c1-c1ccncc1", "melting point": "184 to 190"}
{"molecule": "CCCCC(=O)NC(Cc1ccccc1)C(=O)Nc1c(C(C)C)cccc1C(C)C", "note": "(stereo not drawn)", "melting point": "237 to 238"}
{"molecule": "COC1=CCC2=C(CC[C@H]3[C@@H]4CCC(=O)[C@@]4(C)CC[C@]23C)C1", "melting point": "155 to 158"}
{"molecule": "COC(=O)c1ccc(OC[C@H](C)N(C)C(=O)C(F)(F)F)cc1", "melting point": "73 to 75"}
{"molecule": "CC(=O)NC(COC1CCN(c2nc3ccc(OCC4CC4)cc3o2)CC1)C(F)(F)F", "note": "(stereo not drawn)", "melting point": "126 to 127"}
{"molecule": "CC(C)CNc1nc(-c2ccccc2)c(Cl)n2c(Br)cnc12", "melting point": 138}
{"molecule": "CC(N)CC(=O)N(c1ccc(Nc2ccccc2)cc1)C(C)C", "note": "(stereo not drawn)", "melting point": "145 to 151"}
{"molecule": "NS(=O)(=O)c1cccc(-c2noc(-c3cnn4c(C(F)F)cc(-c5ccc(C(F)(F)F)cc5)nc34)n2)c1", "melting point": 267}
{"molecule": "CCCCCCn1cnc2cnc3ccccc3c21", "melting point": "75 to 77"}
{"molecule": "COc1ccc2c(c1)c(C=C1SC(=S)N(CC(=O)O)C1=O)c(C)n2C(=O)c1ccc(Cl)cc1", "melting point": "204 to 208"}
{"molecule": "COC(=O)C(O)P(C)(C)=O", "note": "(stereo not drawn)", "melting point": "84 to 86"}
{"molecule": "COc1ccc2c3c(c(=O)oc2c1OC)CN(CC(C)=O)CC3", "melting point": "145 to 147"}
{"molecule": "CONC(=O)NC1CCCc2sccc21", "note": "(stereo not drawn)", "melting point": 138}
{"molecule": "N=C1N(Cc2ccc(Cl)nc2)CCN1[N+](=O)[O-]", "melting point": 81}
{"molecule": "OC(CCl)(CC(Cl)(Cl)Cl)c1cc(Cl)cc(Cl)c1", "note": "(stereo not drawn)", "melting point": "69 to 70.5"}
{"molecule": "CCOC(=O)c1nc(-c2ccc(OC)c(OC)c2)cs1", "melting point": "100 to 102"}
{"molecule": "O=S(=O)(c1ccc(O)cc1)c1ccc(-c2ccccc2)cc1", "melting point": "246 to 248"}
{"molecule": "CC1=NC(NC(=O)Nc2cccc(C)c2)C(=O)N(CC(=O)C2CCCCCC2)c2c(C)cccc21", "note": "(stereo not drawn)", "melting point": "171 to 175"}
{"molecule": "CCOC(=O)Cc1ccc(NC(=O)C(COc2ccc(Cl)cc2)NS(=O)(=O)c2ccc(Cl)cc2)cc1", "note": "(racemic)", "melting point": "136 to 138"}
{"molecule": "CC(=O)Nc1ccc(-c2ccc(C(C)O)o2)cc1", "note": "(stereo not drawn)", "melting point": "175 to 177"}
{"molecule": "O=C1OC(=O)c2c(Sc3ccc(Cl)c(Cl)c3)cc([N+](=O)[O-])cc21", "melting point": "154 to 157"}
{"molecule": "CC1(c2ccc(N)cc2)C(=O)Nc2cc(Cl)cc(Cl)c2C1=O", "note": "(stereo not drawn)", "melting point": "226 to 227"}
{"molecule": "O=c1[nH]c2cc(Cl)ccc2c(O)c1-c1cccc(F)c1", "melting point": "> 350"}
{"molecule": "COC(=O)CNC(=O)c1nc(Cl)c2ccccc2c1O", "melting point": 129}
{"molecule": "CC(C)(OCc1cc2cc(C(F)(F)F)ccc2n1S(=O)(=O)c1ccc2c(c1)OCCO2)C(=O)O", "melting point": 75}
{"molecule": "NC(=NO)c1ccc(C(=O)O)cn1", "melting point": "> 300"}
{"molecule": "N#Cc1ccccc1-c1ccc(CN2C(=O)C3(COc4cc5c(cc43)CCO5)c3ccccc32)cc1", "note": "(stereo not drawn)", "melting point": "192 to 194"}
{"molecule": "COc1cc(C(=O)c2cccs2)cc([N+](=O)[O-])c1OC", "melting point": "102 to 104"}
{"molecule": "COc1cc2c(c(Cl)c1Cl)C(=O)C(c1ccccc1)(C1CCCC1)C2", "note": "(stereo not drawn)", "melting point": "105 to 108"}
{"molecule": "CN(C)CCNC(=O)c1ccc(C(Cc2ccc(F)cc2)C(=O)Nc2nc3ccccc3o2)cc1", "note": "(stereo not drawn)", "melting point": "149 to 151"}
{"molecule": "CCCCn1c(=O)n(CCC(C)(O)C#CCN(CCC)CCC)c(=O)c2c1ncn2CCC", "note": "(stereo not drawn)", "melting point": 101}
{"molecule": "Nc1cccc2c(-c3ccccc3)c([N+](=O)[O-])oc12", "melting point": "164 to 166"}
{"molecule": "O=C(O)C(S)c1cc(Cl)ccc1Cl", "note": "(stereo not drawn)", "melting point": "129 to 130"}
{"molecule": "O=C(c1ccccc1)N1CCc2[nH]c3cccc(-c4cc(F)cc(F)c4)c3c2CC1", "melting point": "198 to 201"}
{"molecule": "C=Cc1cnc(Nc2ccc(C#N)cc2)nc1Nc1c(C)cc(C)cc1C", "melting point": "237 to 242"}
{"molecule": "COc1cc(C(C)C)c2c(c1)S(=O)(=O)N(COC(=O)c1c(C)nn(-c3ccccc3)c1C)C2=O", "melting point": "167 to 169"}
{"molecule": "CC(=O)c1cc2c(cc1NC(=O)c1cccc3ccccc13)OCO2", "melting point": "143 to 144"}
{"molecule": "C=CCN1C(=O)c2ccccc2Oc2nc(Cl)ccc21", "melting point": "110 to 112"}
{"molecule": "O=C(CCc1ccc(NC(=O)C(F)(F)F)c([N+](=O)[O-])c1)Nc1ccc(Cl)cc1Cl", "melting point": "193 to 194"}
{"molecule": "N#Cc1cccc(Nc2nc(N)c(C(=O)c3ccccc3C#N)s2)c1", "melting point": "235 to 236"}
{"molecule": "N#Cc1ccc(OCCCn2ccnc2)cc1", "melting point": "60 to 61.5"}
{"molecule": "O=C(NCc1ccc(F)cc1)c1cn2nc(N3CCN(C(=O)c4ccccc4C(F)(F)F)CC3)ccc2n1", "melting point": "205 to 207"}
{"molecule": "COCOc1ccc(-c2ccc(C=C3SC(=O)NC3=O)cc2)cc1C12CC3CC(CC(C3)C1)C2", "melting point": "253 to 254"}
{"molecule": "CCc1c(C)nc(-c2ccccc2)nc1NCC(=O)N(C)c1ccc(Cl)cc1", "melting point": "142 to 143"}
{"molecule": "COc1ccc(S(=O)(=O)N(CC(N)=O)c2cc(Cl)c(Cl)cc2Cc2ccccc2Cl)cc1OC", "melting point": 163}
{"molecule": "CCOC(=O)CN(C)C=C(Cl)C#N", "melting point": 57}
{"molecule": "COc1ccc2c(c1)c(CCOC(=O)c1cc(O)c3c(c1)C(=O)c1cccc(O)c1C3=O)c(C)n2C(=O)c1ccc(Cl)cc1", "melting point": "139 to 146"}
{"molecule": "O=C(Cc1ccc(OC2Cc3ccccc3C2)cc1)NC1(C(=O)O)Cc2ccc(-c3ccc(Cl)cc3)cc2C1", "note": "(stereo not drawn)", "melting point": "233 to 234"}
{"molecule": "Cc1noc(NS(=O)(=O)c2ccc(-c3ccccc3)cc2)c1Cl", "melting point": "129 to 132"}
{"molecule": "COc1cccc(CN2CCN(C)CC2C2=NCCN2)c1", "note": "(stereo not drawn)", "melting point": "78 to 80"}
{"molecule": "Cc1c(C)c(C2CC(=O)C=C(O)C2)c(Cl)c2c1CCO2", "note": "(stereo not drawn)", "melting point": 224}
{"molecule": "COc1cc(OC)nc(C2(Cl)OC(=O)c3ncccc32)n1", "note": "(stereo not drawn)", "melting point": "146 to 148"}
{"molecule": "O=C(Cc1ccccc1SCc1ccccc1)Nc1ccccc1", "melting point": "81 to 83"}
{"molecule": "CCN1c2ncccc2C(SC)=Nc2c(C)cc(C)nc21", "melting point": "130 to 132"}
